Test results published in patent US9375411B2, “Uses and methods for the treatment of liver diseases or conditions” (Verlyx Pharma Inc., priority 2012, dated 2016).

Key:
NASH-like pathology = test: Diabetic and high-fat diet model (STAM mice, NASH-like pathology); type: in vivo, C57BL/6 mice; conditions: high dose group (25 mg/kg IP three times a week, 6-9 wks)
Protocol: In this experiment, NASH-like pathology is induced in C57BL/6 mice by a single subcutaneous injection of 200 ug streptozotocin 2 days after birth and feeding with high fat diet (HFD, 57 kcal % fat, cat#: HFD32, CLEA Japan, Japan) after 4 weeks of age (STAM mice). Vehicle or pentamidine treatment was administered three times a week from 6 to 9 weeks of age. Vehicle (0.9% NaCl) and PENTAMIDINE were administered by intraperitoneal route in a volume of 10 mL/kg.

[1] = Repeated oral administration, tissue concentrations in mice; type: in vivo, Female Fox Chase SCID CB17 Mice
Protocol: In this experiment, mice from all groups were first injected with pentamidine via the IV route on Day 1 (5 mg/kg). Tissue concentrations were assessed 24 hours later (on Day 2), and weekly thereafter (Day 7 and 14) with no subsequent pentamidine administration. Starting on Day 2, groups 2 and 3 were given pentamidine once a day (QD) or twice a day (BID) respectively and tissue levels were measured 24 hours later (Day 3) and weekly thereafter for two weeks.

[2] = mice, PO 50 mg/kg
[3] = Oral bioavailability and biodistribution of pentamidine salts
Protocol: In this experiment, HCl, isethionate and tosylate salts of pentamidine were administered orally to mice and their PK and tissue accumulations were compared.
PK parameters for pentamidine salt following oral administration of 200 mg/kg in mice.
Biodistribution of Pentamidine Salts in mice, 24 hours after PO administration of 200 mg/kg.

[4] = IV 5 mg/kg Day 1, then PO QD or BID
[5] = mice, 24 hours after PO 200 mg/kg, listed as Penta-Ise, 200 mg/kg
[6] = mice, oral 200 mg/kg, blood, listed as Isethionate salt, 200 mg/kg

In the case of `N=C(N)c1ccc(OCCCCCOc2ccc(C(=N)N)cc2)cc1` [pentamidine, pentamidine bis(2-hydroxyethanesulfonate)], the Liver weights (NASH-like pathology) is reported as “close to normal mice control values”, the “fibrosis formation (Sirius Red staining)” value (NASH-like pathology) is reported as “trend for reduction” and the “Kidney levels, effect of oral administration” value [1, 4] is reported as “not affected by oral administration”. The “liver concentrations under oral administration regimen” value [1, 4] was “can be maintained to a desired concentration”, the “Kidneys, lung and muscle concentrations, difference between groups with or without PO” value ([1]; IV 5 mg/kg Day 1, then none, PO QD or PO BID) was “no significant difference between groups” and the “Liver and kidney levels after PO administration versus blood” value [2] was “several folds that of blood”. For the same compound, the “muscle concentration after PO administration versus blood” value [2] was “several folds the concentration found in blood”, the “Tissue Concentration Kidney” value [3, 5] was 5.0 µM and the “Tissue Concentration Liver” value [3, 5] was 5.6 µM. For the same compound, the “Tissue Concentration Lung” value [3, 5] was 2.7 µM, the “Tissue Concentration Pancreas” value [3, 5] was 1.3 µM and the “F*” value ([3]; mice, oral 200 mg/kg, based on the iv AUC at 5 mg/kg of 19.08, listed as Isethionate salt) was 3.0. The AUCINF [3, 6] was 23.0 µM·h, the Cl/F [3, 6] was 255 mL/min/kg and the Cmax [3, 6] was 3.06 µM. The MRT [3, 6] was 52.8 h, the Tmax [3, 6] was 3.33 h and the t½ [3, 6] was 44.5 h. For the same compound, the AUC ([3]; mouse, in vivo, iv, 5 mg/kg) was 19.1 µM·h.
